Test results taken from ChEMBL document CHEMBL3885881, “DrugMatrix”.

Organism: Rattus norvegicus
Assay: DrugMatrix - Regimen: Daily Repeat
Assay type: toxicity, organism-based, Sprague-Dawley
Parameters: regimen Daily Repeat, gender Male, age 6-8 weeks
Conditions: in vivo, po, […], route oral GAVAGE, vehicle 100 % WATER; for ALANINE AMINOTRANSFERASE / ALBUMIN / ALKALINE PHOSPHATASE / ASPARTATE AMINOTRANSFERASE / BLOOD UREA NITROGEN / CARBON DIOXIDE / CHLORIDE / CHOLESTEROL / CREATINE PHOSPHOKINASE / CREATININE / GLUCOSE / LACTATE DEHYDROGENASE / LIPASE / PHOSPHORUS / POTASSIUM / SODIUM / TOTAL BILIRUBIN / TOTAL PROTEIN / URIC ACID: tissue Plasma; for ABSOLUTE BASOPHIL / ABSOLUTE EOSINOPHIL / ABSOLUTE LYMPHOCYTE / ABSOLUTE MONOCYTE / ABSOLUTE SEGMENTED NEUTROPHIL / BASOPHIL / EOSINOPHIL / ERYTHROCYTE COUNT / HEMATOCRIT / HEMOGLOBIN / LEUKOCYTE COUNT / LYMPHOCYTE / MEAN CORPUSCULAR HEMOGLOBIN / MEAN CORPUSCULAR HEMOGLOBIN CONCENTRATION / MEAN CORPUSCULAR VOLUME / MONOCYTE / NEUTROPHIL / NUCLEATED RED BLOOD CELLS / PLATELET COUNT: tissue Blood
[1] = 72 h, dose 0.025 mg/Kg, dose level Low, time 3 day
[2] = 72 h, dose 0.25 mg/Kg, dose level High, time 3 day
[3] = 120 h, dose 0.025 mg/Kg, dose level Low, time 5 day
[4] = 120 h, dose 0.25 mg/Kg, dose level High, time 5 day

C[C@@H]1C[C@@H]([C@H](O)CC2CC(=O)NC(=O)C2)C(=O)[C@@H](C)C1 [CYCLOHEXIMIDE]
ALANINE AMINOTRANSFERASE [1]: 59.67 u/L
ALBUMIN [1]: 4.1 G/DL
ALKALINE PHOSPHATASE [1]: 369.67 u/L
ASPARTATE AMINOTRANSFERASE [1]: 107.33 u/L
BLOOD UREA NITROGEN [1]: 15.67 mg/dL
CARBON DIOXIDE [1]: 31 mmol/L
CHLORIDE [1]: 102 MEQ/L
CHOLESTEROL [1]: 69 mg/dL
CREATINE PHOSPHOKINASE [1]: 1055 u/L
CREATININE [1]: 0.22 mg/dL
GLUCOSE [1]: 164 mg/dL
LACTATE DEHYDROGENASE [1]: 240.33 u/L
LIPASE [1]: 9 u/L
PHOSPHORUS [1]: 12.27 mg/dL
POTASSIUM [1]: 6.52 MEQ/L
SODIUM [1]: 142.17 MEQ/L
TOTAL BILIRUBIN [1]: 0.23 mg/dL
TOTAL PROTEIN [1]: 5.63 G/DL
URIC ACID [1]: 1.8 mg/dL
ALANINE AMINOTRANSFERASE [2]: 45 u/L
ALBUMIN [2]: 3.43 G/DL
ALKALINE PHOSPHATASE [2]: 376.67 u/L
ASPARTATE AMINOTRANSFERASE [2]: 77 u/L
BLOOD UREA NITROGEN [2]: 14.33 mg/dL
CARBON DIOXIDE [2]: 34.33 mmol/L
CHLORIDE [2]: 101.33 MEQ/L
CHOLESTEROL [2]: 48.67 mg/dL
CREATINE PHOSPHOKINASE [2]: 345.33 u/L
CREATININE [2]: 0.17 mg/dL
GLUCOSE [2]: 154.33 mg/dL
LACTATE DEHYDROGENASE [2]: 99 u/L
LIPASE [2]: 8 u/L
PHOSPHORUS [2]: 12.1 mg/dL
POTASSIUM [2]: 7.04 MEQ/L
SODIUM [2]: 141.27 MEQ/L
TOTAL BILIRUBIN [2]: 0.23 mg/dL
TOTAL PROTEIN [2]: 4.67 G/DL
URIC ACID [2]: 1.33 mg/dL
ABSOLUTE BASOPHIL [3]: 0 CELLS/uL
ABSOLUTE EOSINOPHIL [3]: 0 CELLS/uL
ABSOLUTE LYMPHOCYTE [3]: 7936.67 CELLS/uL
ABSOLUTE MONOCYTE [3]: 68.67 CELLS/uL
ABSOLUTE SEGMENTED NEUTROPHIL [3]: 628 CELLS/uL
BASOPHIL [3]: 0%
EOSINOPHIL [3]: 0%
ERYTHROCYTE COUNT [3]: 5.73 x10E6/uL
HEMATOCRIT [3]: 34.33%
HEMOGLOBIN [3]: 13.1 G/DL
LEUKOCYTE COUNT [3]: 8.63 x10E3/uL
LYMPHOCYTE [3]: 91.67%
MEAN CORPUSCULAR HEMOGLOBIN [3]: 22.9 pg
MEAN CORPUSCULAR HEMOGLOBIN CONCENTRATION [3]: 38.13 G/DL
MEAN CORPUSCULAR VOLUME [3]: 60.1 fL
MONOCYTE [3]: 1%
NEUTROPHIL [3]: 7.33%
NUCLEATED RED BLOOD CELLS [3]: 0 /100WBC
PLATELET COUNT [3]: 1317.33 x10E3/uL
ABSOLUTE BASOPHIL [4]: 0 CELLS/uL
ABSOLUTE EOSINOPHIL [4]: 26.67 CELLS/uL
ABSOLUTE LYMPHOCYTE [4]: 7410 CELLS/uL
ABSOLUTE MONOCYTE [4]: 139.67 CELLS/uL
ABSOLUTE SEGMENTED NEUTROPHIL [4]: 1057 CELLS/uL
BASOPHIL [4]: 0%
EOSINOPHIL [4]: 0.33%
ERYTHROCYTE COUNT [4]: 5.35 x10E6/uL
HEMATOCRIT [4]: 32.87%
HEMOGLOBIN [4]: 12.77 G/DL
LEUKOCYTE COUNT [4]: 8.63 x10E3/uL
LYMPHOCYTE [4]: 85%
MEAN CORPUSCULAR HEMOGLOBIN [4]: 23.83 pg
MEAN CORPUSCULAR HEMOGLOBIN CONCENTRATION [4]: 38.8 G/DL
MEAN CORPUSCULAR VOLUME [4]: 61.47 fL
MONOCYTE [4]: 1.67%
NEUTROPHIL [4]: 13%
NUCLEATED RED BLOOD CELLS [4]: 0 /100WBC
PLATELET COUNT [4]: 1213 x10E3/uL
ALANINE AMINOTRANSFERASE [3]: 45.33 u/L
ALBUMIN [3]: 4.03 G/DL
ALKALINE PHOSPHATASE [3]: 343 u/L
ASPARTATE AMINOTRANSFERASE [3]: 78 u/L
BLOOD UREA NITROGEN [3]: 15.33 mg/dL
CARBON DIOXIDE [3]: 33.33 mmol/L
CHLORIDE [3]: 102.33 MEQ/L
CHOLESTEROL [3]: 68.67 mg/dL
CREATINE PHOSPHOKINASE [3]: 249.67 u/L
CREATININE [3]: 0.16 mg/dL
GLUCOSE [3]: 141 mg/dL
LACTATE DEHYDROGENASE [3]: 124.33 u/L
LIPASE [3]: 9 u/L
PHOSPHORUS [3]: 11.4 mg/dL
POTASSIUM [3]: 5.87 MEQ/L
SODIUM [3]: 146.43 MEQ/L
TOTAL BILIRUBIN [3]: 0.1 mg/dL
TOTAL PROTEIN [3]: 5.83 G/DL
URIC ACID [3]: 0.73 mg/dL
ALANINE AMINOTRANSFERASE [4]: 54.67 u/L
ALBUMIN [4]: 3.6 G/DL
ALKALINE PHOSPHATASE [4]: 291.33 u/L
ASPARTATE AMINOTRANSFERASE [4]: 78 u/L
BLOOD UREA NITROGEN [4]: 16 mg/dL
CARBON DIOXIDE [4]: 35.33 mmol/L
CHLORIDE [4]: 101.5 MEQ/L
CHOLESTEROL [4]: 65 mg/dL
CREATINE PHOSPHOKINASE [4]: 253.67 u/L
CREATININE [4]: 0.15 mg/dL
GLUCOSE [4]: 135 mg/dL
LACTATE DEHYDROGENASE [4]: 109 u/L
LIPASE [4]: 9 u/L
PHOSPHORUS [4]: 11.9 mg/dL
POTASSIUM [4]: 6.52 MEQ/L
SODIUM [4]: 143.55 MEQ/L
TOTAL BILIRUBIN [4]: 0.1 mg/dL
TOTAL PROTEIN [4]: 5.03 G/DL
URIC ACID [4]: 0.73 mg/dL
